# According to US20240358681A1, “METHODS OF USE OF PPAR AGONIST COMPOUNDS AND PHARMACEUTICAL COMPOSITIONS THEREOF” (Mitobridge, Inc., priority 2021, published 2024):
# pEC50: −log10 of the molar value.
# Columns and labels:
# KSS fibroblasts = experiment: Seahorse mitochondrial fatty acid oxidation; assay type: cell-based, human
# Protocol: (§1) FAO was measured using a Seahorse XF96 (Seahorse Biosciences). MELAS m.3243A>G fibroblasts, KSS fibroblasts, and MERRF tRNA-Lys 8344 cybrids were treated with DMSO or Compound (I) 8 hours after seeding into flasks. 24 hours after initial treatment, media was changed to complete media with DMSO or Compound (I) with reduced glucose (1.1 mM for primary fibroblasts and 5.5 mM for cybrids) and 0.5 mM carnitine. After 48 hours after initial treatment, cells were plated into 96-well cell culture microplates at a density of 40,000 cells per well. FAO assay was initiated 8 hours after plating.
# (§2) 200 μL of KHB was added to the blank wells and 200 μL KHB mixed with control BSA (final 0.074 mM) or BSA-palmitate (final 0.074 mM BSA, 500 μM palmitate was added to the appropriate wells. Stress test components compounds are added in the following sequential order; 1) Oligomycin, 2) FCCP, and 3) Rotenone and Antimycin A for final concentrations of 2.5 μM, 6 μM and 1 μM, respectively. Oxidation of palmitate was assessed using the same ratio as LHON/Leigh fibroblasts.
# [1] = system: MELAS m.3243A>G fibroblasts; experiment: Seahorse mitochondrial fatty acid oxidation; assay type: cell-based, human
# Protocol: as §1, §2
# [2] = system: MERRF tRNA-Lys 8344 cybrids; experiment: Seahorse mitochondrial fatty acid oxidation; assay type: cell-based, human; conditions: MERRF cybrid cell line, FIG. 4B
# Protocol: as §1, §2
# PMM patient fibroblasts = experiment: Fatty acid OXPHOS in PMM patient fibroblasts (FIG. 4B, all lines); assay type: cell-based, human; conditions: 3, 9 and 30 nM
# Protocol: LHON/Leigh cells were treated with DMSO or Compound (I) in complete media supplemented with 0.5 mM carnitine for 24 hours prior to assaying. Treated cells were trypsinized, collected in Krebs-Henseleit Buffer (KHB) and pelleted.
# Palmitate-mediated OXPHOS was measured using an Oxygraph-2k (Oroboros Instruments). Cells (1×10^6) in KHB were loaded into each chamber with 250 μM BSA or BSA-conjugated palmitate. KHB was added to reach a final volume of 2 mL. Respiration was measured at 37° C. as previously described in Zhang, Z., et al., Primary respiratory chain disease causes tissue-specific dysregulation of the global transcriptome and nutrient-sensing signaling network. (1932-6203). Briefly, BSA and BSA-conjugated palmitate treated cells were analyzed simultaneously in two separate chambers. […]
# Data were analyzed using DatLab6 software. […] Non-mitochondrial respiration was measured after addition of Rotenone and Antimycin A sequentially (ROX, residual oxygen consumption, background) and subtracted from maximal respiration values. […]
# FAO was measured using a Seahorse XF96 (Seahorse Biosciences). […]
# [3] = system: PPARδ target genes and FAO genes in quadriceps muscle; experiment: Gene expression analysis of quadriceps muscle in aged DIO mice; assay type: in vivo, mouse; conditions: 30 mg/kg oral once daily, 5 weeks
# Protocol: (§3) All animal studies were performed in accordance with Charles River Laboratories animal welfare protocols. Male Diet-Induced Obese (DIO) C57BL/6NTac mice 28 weeks of age were fed a high fat diet. 20 mice were randomized based on bodyweight into two cohorts of 10 mice each. Five mice were assigned to each treatment group in each cohort (i) vehicle or (ii) Compound (I) at 30 mg/kg via (n=10 total animals per treatment). […] Mice were acclimatized to the treadmill room for one hour on days of training or endurance runs. After an initial 5 min exploration period the treadmill belt moved at 5 m/min for 10 min with the motivation grid intensity set to 0.46 mA. Mice required a few visits to the grid to learn to walk/run on the moving belt and avoid the electric grid shock. After two acclimatization periods the mice learned to avoid the electric grid and stay on the moving belt, with fewer visits to the electric grid. The maximum speed for the endurance run was capped at 16.5 m/min based on speed acclimation runs, which represents the speed at which 25% of animals are running in the top ⅔ of the treadmill at a 5° slope. The mice were considered exhausted if they stayed on the electric grid with no limbs on the treadmill belt for 10 seconds.
# Before and after the exhaustion run, blood samples were obtained via a tail vein nick. At the end of the study (day 45) whole blood along with gastrocnemius and quadriceps skeletal muscles were collected following CO2 euthanasia.
# [4] = Tissue exposure in skeletal muscle (gastrocnemius) of aged DIO mice; assay type: in vivo, mouse; conditions: 30 mg/kg oral once daily, 5 weeks, FIG. 6A
# Protocol: as §3
# Before and after the exhaustion run, blood samples were obtained via a tail vein nick. […]
# PPARδ = target: T1, PPARδ (Mus musculus, UniProt P35396); experiment: Mouse EC50 (PPARδ agonist)
# T1 sequence (P35396 1-440): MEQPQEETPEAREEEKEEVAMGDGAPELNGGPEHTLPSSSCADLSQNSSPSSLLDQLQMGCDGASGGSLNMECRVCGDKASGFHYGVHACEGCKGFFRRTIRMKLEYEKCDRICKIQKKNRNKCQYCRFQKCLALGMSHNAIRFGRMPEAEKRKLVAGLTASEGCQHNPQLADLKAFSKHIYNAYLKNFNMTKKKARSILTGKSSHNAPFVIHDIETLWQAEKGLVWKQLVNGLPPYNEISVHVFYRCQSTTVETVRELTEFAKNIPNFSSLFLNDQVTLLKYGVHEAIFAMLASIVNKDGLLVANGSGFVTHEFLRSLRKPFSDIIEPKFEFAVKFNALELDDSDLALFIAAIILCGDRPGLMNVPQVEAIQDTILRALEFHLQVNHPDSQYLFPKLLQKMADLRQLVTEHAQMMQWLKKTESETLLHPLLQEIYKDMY
# [5] = 52-week monkey GLP toxicity study; assay type: in vivo
# [6] = 26-week rat GLP toxicity study; assay type: in vivo
structure (smiles),measurement,setting,value
"Cc1cnc(-c2ccc(C(F)(F)F)cc2)n1Cc1ccccc1OCCC[C@@H](C)CC(=O)O [Compound (I), (R)-3-Methyl-6-(2-((5-methyl-2-(4-(trifluoromethyl)phenyl)-1H-imidazol-1-yl)methyl)-phenoxy)hexanoic acid]","fatty acid-mediated OXPHOS, dose response","KSS fibroblasts; KSS patient fibroblasts, two biological replicates, FIG. 4B",trending dose response
same,increase in fatty acid mediated OXPHOS,"KSS fibroblasts; KSS, 30 nM",thirty percent or greater
same,restoration to the fatty acid-mediated OXPHOS of healthy donor fibroblasts,"KSS fibroblasts; KSS, 30 nM",near complete restoration
same,"fatty acid-mediated OXPHOS, dose response","[1]; MELAS patient fibroblasts, two biological replicates, FIG. 4B",trending dose response
same,increase in fatty acid mediated OXPHOS,"[1]; MELAS, 30 nM",thirty percent or greater
same,restoration to the fatty acid-mediated OXPHOS of healthy donor fibroblasts,"[1]; MELAS, 30 nM",partial
same,fatty acid mediated OXPHOS response,[2]; 30 nM,less pronounced
same,"fatty acid mediated OXPHOS, dose response",[2],dose-dependent trend
same,fatty acid OXPHOS,PMM patient fibroblasts,increased
same,Angptl4 expression increase in quadriceps muscle,[3]; FIG. 5A,3.5 fold
same,Pdk4 expression increase in quadriceps muscle,[3]; FIG. 5B,2.5 fold
same,Acadvl expression (FAO gene),[3]; FIG. 5C-5E,significantly increased
same,Cpt1a expression (FAO gene),[3]; FIG. 5C-5E,significantly increased
same,Slc25a20 expression (FAO gene),[3]; FIG. 5C-5E,significantly increased
same,skeletal muscle exposure,[4],detectable and covered the mouse EC50
same,pEC50,PPARδ,7.85
same,no observed adverse effect level (NOAEL),[5],highest tested dose
same,no observed adverse effect level (NOAEL),[6],highest tested dose
